Laboratory results reported in the supplement of paper PMC10307832.

What was measured:
Experiment in all cases: relative viability (nuclei count vs DMSO), 5 days (fraction); higher = more cells survive
EHT 1864 + Navitoclax = compound: C1COCCN1CC2=CC(=O)C(=CO2)OCCCCCSC3=C4C=CC(=CC4=NC=C3)C(F)(F)F [EHT 1864] + CC1(C)CCC(c2ccc(Cl)cc2)=C(CN2CCN(c3ccc(C(=O)NS(=O)(=O)c4ccc(N[C@H](CCN5CCOCC5)CSc5ccccc5)c(S(=O)(=O)C(F)(F)F)c4)cc3)CC2)C1 [Navitoclax] (partner 0.5 µM)
In short: (§1)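 Cells from lung cancer lines were seeded into 1536-well plates and, one day later, dosed by pin tool. Treatments were either a single drug or a fixed dose of an anchor drug with five library-drug doses (not always all listed) in √10 steps. After 5 days, nuclei were stained in a one-step fixation (final 0.05% Triton X-100, 1% formaldehyde, 1 ug/ml Hoechst) and counted on 4× images, and relative viability is the treated-to-vehicle nuclei ratio, as the median of duplicate plates.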

EHT 1864 + Luminespib = compound: C1COCCN1CC2=CC(=O)C(=CO2)OCCCCCSC3=C4C=CC(=CC4=NC=C3)C(F)(F)F [EHT 1864] + CCNC(=O)c1noc(-c2cc(C(C)C)c(O)cc2O)c1-c1ccc(CN2CCOCC2)cc1 [Luminespib] (partner 0.01 µM)
In short: as §1

EHT 1864 + Foretinib = compound: C1COCCN1CC2=CC(=O)C(=CO2)OCCCCCSC3=C4C=CC(=CC4=NC=C3)C(F)(F)F [EHT 1864] + COc1cc2c(Oc3ccc(NC(=O)C4(C(=O)Nc5ccc(F)cc5)CC4)cc3F)ccnc2cc1OCCCN1CCOCC1 [Foretinib] (partner 0.25 µM)
In short: as §1

EHT 1864 + Linsitinib = compound: C1COCCN1CC2=CC(=O)C(=CO2)OCCCCCSC3=C4C=CC(=CC4=NC=C3)C(F)(F)F [EHT 1864] + C[C@]1(O)C[C@@H](c2nc(-c3ccc4ccc(-c5ccccc5)nc4c3)c3c(N)nccn32)C1 [Linsitinib] (partner 1 µM)
In short: as §1

Cell Line	relative viability (EHT 1864 + Navitoclax; first compound 0.04 µM)	relative viability (EHT 1864 + Navitoclax; first compound 0.1265 µM)	relative viability (EHT 1864 + Navitoclax; first compound 0.4 µM)	relative viability (EHT 1864 + Navitoclax; first compound 1.265 µM)	relative viability (EHT 1864 + Navitoclax; first compound 4 µM)	relative viability (EHT 1864 + Luminespib; first compound 0.04 µM)	relative viability (EHT 1864 + Luminespib; first compound 0.1265 µM)	relative viability (EHT 1864 + Luminespib; first compound 0.4 µM)	relative viability (EHT 1864 + Luminespib; first compound 1.265 µM)	relative viability (EHT 1864 + Luminespib; first compound 4 µM)	relative viability (EHT 1864 + Foretinib; first compound 0.04 µM)	relative viability (EHT 1864 + Foretinib; first compound 0.1265 µM)	relative viability (EHT 1864 + Foretinib; first compound 0.4 µM)	relative viability (EHT 1864 + Foretinib; first compound 1.265 µM)	relative viability (EHT 1864 + Foretinib; first compound 4 µM)	relative viability (EHT 1864 + Linsitinib; first compound 0.04 µM)	relative viability (EHT 1864 + Linsitinib; first compound 0.1265 µM)	relative viability (EHT 1864 + Linsitinib; first compound 0.4 µM)	relative viability (EHT 1864 + Linsitinib; first compound 1.265 µM)	relative viability (EHT 1864 + Linsitinib; first compound 4 µM)
LU99A	0.689	0.566	0.716	0.818	0.933	0.186	0.242	0.229	0.215	0.233	0.818	0.796	0.835	0.805	0.749	0.514	0.4	0.5	0.607	0.539
LXF-289	0.952	0.837	0.885	0.811	0.939	0.739	0.544	0.689	0.657	0.647	0.976	0.961	0.947	0.925	0.851	0.926	0.929	0.883	0.898	0.821
NCI-H23	0.718		0.627	0.784	0.816	0.194		0.242	0.193	0.204	0.92	0.959	0.889	0.956	0.923	0.522		0.443	0.59	0.551
NCI-H322M	1.13	1.26	1.13	1.29	1.23	0.877	0.859	0.955	0.529	1.06	0.898	0.948	0.995	0.895	1.06	0.89	0.806	0.98	0.878	0.968
NCI-H441	0.542	0.536	0.513	0.611	0.233	0.478	0.346	0.322	0.393	0.385	0.953	1.03	1	0.942	0.984	0.517	0.574	0.503	0.461	0.561
NCI-H460	1.11	1.16	1.03	1.16	1.02	0.0334	0.0284	0.0337	0.0326	0.0353	1	0.921	1.01	1.01	0.853	0.76	0.603	0.747	0.624	0.845
NCI-H520	0.999	1.07	1.06	1.08	1.06	0.221	0.227	0.219	0.193	0.234	0.56	0.734	0.736	0.697	0.744	0.917	0.998	0.747	0.813	0.913
NCI-H596	1.1	0.892	1.08	0.812	0.888	0.953	0.986	1.03	0.972	1.05	0.836	0.701	0.752	0.745	0.821	1.06	1.11	0.989	0.906	0.964
NCI-H647	0.981	0.837	1.17	1.12	1.05	0.196	0.213	0.126	0.102	0.111	1.19	0.977	1.37	1.27	1.26	1.03	1.13	1.2	1.15	0.983
NCI-H727	0.554	0.507	0.348		0.324	0.62	0.417	0.376	0.538	0.385	0.905	0.875	0.724	0.95	0.928	0.272	0.366	0.349		0.319
NCI-H838	1.08	1.04	1.14	1.08	1.14	0.274	0.237	0.383	0.266	0.293	0.88	0.864	1.05	0.95	1.01	0.977	0.889	1.08	1.05	1.01
NCI-H1355	1.04	0.843	0.907	0.904	0.838	0.711	0.652	0.691	0.654	0.699	0.972	0.815	0.921	0.95	0.966	0.781	0.667	0.718	0.72	0.77
NCI-H1395	1.12	1.02	1.18	0.967	0.875	0.605	0.688	0.648	0.76	0.673	1.03	0.924	0.897	1.02	0.859	1.02	0.982	0.957	1.16	1.02
NCI-H1437	1.06	1.03	0.967	0.819	0.671	1.1	1.04	1.03	0.912	0.681	1.31	1.22	1.2	1.03	0.824	0.905	0.917	0.974	0.776	0.655
NCI-H1651	1.03	0.947	1.1	1	0.91	0.694	0.907	0.803	0.704	0.57	0.836	0.757	0.845	0.691	0.827	1.07	0.885	0.992	0.931	0.996
NCI-H1666	0.881	0.834	0.957	0.965	0.92	1	1.03	0.877	0.993	0.968	0.999	0.917	0.894	0.948	0.998	0.828	0.74	0.837	0.73	0.912
